Substitutions are numbered along the chain they refer to.
Experiments:
[1] = target: T1, human 5-HT3A receptor N101A mutant (Homo sapiens, UniProt P46098, N123A); experiment: Two-electrode voltage clamp, I5-HT inhibition, N101A mutant; assay type: cell-based
T1 construct: expressed in transfected cells; host or cells: Xenopus oocytes injected with mutant mRNA
T1 sequence (P46098 24-478 N123A): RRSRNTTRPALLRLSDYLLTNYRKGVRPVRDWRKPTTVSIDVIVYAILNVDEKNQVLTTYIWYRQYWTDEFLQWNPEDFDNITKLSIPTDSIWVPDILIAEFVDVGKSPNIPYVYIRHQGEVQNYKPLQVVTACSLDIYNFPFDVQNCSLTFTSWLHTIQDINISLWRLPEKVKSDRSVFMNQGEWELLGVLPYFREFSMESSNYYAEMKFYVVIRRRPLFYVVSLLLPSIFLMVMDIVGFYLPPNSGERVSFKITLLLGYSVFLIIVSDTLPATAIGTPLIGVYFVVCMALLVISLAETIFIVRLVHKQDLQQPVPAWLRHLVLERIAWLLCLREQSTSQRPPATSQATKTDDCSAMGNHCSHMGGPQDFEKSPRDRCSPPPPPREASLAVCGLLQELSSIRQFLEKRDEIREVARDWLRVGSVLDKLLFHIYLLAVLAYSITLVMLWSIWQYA
Procedure: Human 5-HT3A receptor cDNA was linearized using restriction enzyme XhoI. In vitro transcription was performed using an mMESSAGE mMACHINE T7 Transcription Kit (Thermo Fisher Scientific, Waltham, MA, USA). The final mRNA product was dissolved in 1X Diethyl Pyrocarbonate (RNase-free water) at a final concentration of 1 μg/μL and kept in a deep-freezer at −80 °C until used.
Xenopus oocytes were used in this study as cells for expression of human 5-HT3A receptor. All female frogs used in this experiment were obtained from the Korean Xenopus Resource Center for Research (KXRCR000001). […] Isolated oocytes were incubated with ND96 incubation buffer (96 mM NaCl, 2 mM KCl, 1 mM MgCl2, 1.8 mM CaCl2, 5 mM HEPES, 2.5 mM sodium pyruvate, and […], pH 7.4) at 18 °C until the experiment was performed. Human 5-HT3A receptor mRNA was injected into oocytes using a nanoinjector (Drummond Scientific, Broomall, PA, USA) with a mineral-filled 10 μL microdispenser (VWR, Piscataway, NJ, USA).
For the experiment, induced-inward current was converted to digital data with pClamp 10 software (Axon Instruments, Union City, CA, USA). All experiments were performed at room temperature using an oocyte clamp equipped with Digidata. The membrane holding potential was −80 mV.
The voltage relationship experiment for confirming the relationship between induce-inward current and voltage, the voltage was varied from −80 mV to +60 mV using a ramp protocol. Each microelectrode was filled with 3 M KCl having a resistance of 0.2 MΩ. Serotonin and KAE applied in the experiment were diluted in ND96 bath solution (96 mM NaCl, 2 mM KCl, 1 mM MgCl2, 1.8 mM CaCl2, and 5 mM HEPES, pH 7.5) to specified concentration. The rate of application of the reagent was 2 mL per minute. All recording data were analyzed using Clampfit 9.0 (Molecular Devices, San Jose, CA, USA). […]
All presented experiments were performed at least three times for scientific verification. […] Induced-inward current data were analyzed with SigmaPlot 10.0 software (Systat Software, Inc., San Jose, CA, USA).

[2] = design: method as in PMID 21428901; conditions: lipophilic, penetrates the lipid bilayer; cited from earlier work
[3] = target: T2, human 5-HT3A receptor R65A mutant (Homo sapiens, UniProt P46098, R87A); experiment: Two-electrode voltage clamp, I5-HT inhibition, R65A mutant; assay type: cell-based; conditions: −80 mV
T2 sequence (P46098 24-478 R87A): T1 sequence (P46098 24-478 N123A) with R64A, A100N
Procedure: (§1) Xenopus oocytes were used in this study as cells for expression of human 5-HT3A receptor. All female frogs used in this experiment were obtained from the Korean Xenopus Resource Center for Research (KXRCR000001). […] Xenopus oocytes were extracted during ice incubation state and isolated as single oocytes using collagenase II (2 mg/mL) in OR2 buffer (82.5 mM NaCl, 2 mM KCl, 1 mM MgCl2, 5 mM HEPES, pH 7.4). Isolated oocytes were incubated with ND96 incubation buffer (96 mM NaCl, 2 mM KCl, 1 mM MgCl2, 1.8 mM CaCl2, 5 mM HEPES, 2.5 mM sodium pyruvate, and 50 mg/mL gentamycin, pH 7.4) at 18 °C until the experiment was performed. Human 5-HT3A receptor mRNA was injected into oocytes using a nanoinjector (Drummond Scientific, Broomall, PA, USA) with a mineral-filled 10 μL microdispenser (VWR, Piscataway, NJ, USA).
(§2) To confirm the KAE activity on the human 5-HT3A receptor, a two-electrode voltage clamp (OC-725C; Warner Instruments, Hamden, CT, USA) with a Digitata 1550A was used. For the experiment, induced-inward current was converted to digital data with pClamp 10 software (Axon Instruments, Union City, CA, USA). All experiments were performed at room temperature using an oocyte clamp equipped with Digidata. The membrane holding potential was −80 mV.
(§3) The voltage relationship experiment for confirming the relationship between induce-inward current and voltage, the voltage was varied from −80 mV to +60 mV using a ramp protocol. […] All recording data were analyzed using Clampfit 9.0 (Molecular Devices, San Jose, CA, USA). […]
(§4) All presented experiments were performed at least three times for scientific verification. […] Induced-inward current data were analyzed with SigmaPlot 10.0 software (Systat Software, Inc., San Jose, CA, USA). […]

[4] = target: T3, human 5-HT3A receptor T154A mutant (Homo sapiens, UniProt P46098, T176A); experiment: Two-electrode voltage clamp, I5-HT inhibition, T154A mutant; assay type: cell-based; conditions: −80 mV
T3 sequence (P46098 24-478 T176A): T1 sequence (P46098 24-478 N123A) with A100N, T153A
Procedure: as §1, §2, §3, §4

With `O=c1c(O)c(-c2ccc(O)cc2)oc2cc(O)cc(O)c12` [KAE, kaempferol] the IC50 [1] was 56.4 ± 9.7 µM, the Vmax ([1]; N101A, −80 mV) was 83.7 ± 8.6% and the “n (Hill coefficient)” value ([1]; N101A, −80 mV) was 1.1 ± 0.6. For the same molecule, the “ability to cross the blood-brain barrier (BBB)” value [2] was “can cross the blood-brain barrier (BBB)”, the IC50 [3] was 44.7 ± 9.1 µM and the Vmax [3] was 82.6 ± 7.4%. For the same molecule, the “n (Hill coefficient)” value [3] was 1.8 ± 0.7, the IC50 [4] was 33.4 ± 7.9 µM and the Vmax [4] was 73.5 ± 9.4%. For the same molecule, the “n (Hill coefficient)” value [4] was 1.1 ± 0.4.
